Biological target: T1, human CGRP receptor (Homo sapiens, UniProt O60894+Q16602)
T1 construct: SK-N-MC membranes (˜20 μg protein) are incubated for 180 minutes at ambient temperature; endogenous in cells; host or cells: SK-N-MC cells (membranes)
Test: Binding studies with SK-N-MC cells (125I-CGRP displacement from membranes)
Details: 50 pM 125I-iodotyrosyl-CGRP, 180 min, ambient temperature
Experimental: A. Binding Studies with SK-N-MC Cells (Expressing the Human CGRP Receptor)
SK-N-MC membranes (˜20 μg protein) are incubated for 180 minutes at ambient temperature with 50 pM ^125I-iodotyrosyl-Calcitonin-Gene-Related Peptide and increasing concentrations of the test substances in a total volume of 250 μl (assay buffer: 10 mM tris, 50 mM NaCl, 5 mM MgCl2, 1 mM EDTA, pH=7.4). The incubation is ended by rapid filtration through GF/B-glass fibre filters treated with polyethyleneimine (0.1%) using a cell harvester. The protein-bound radioactivity is measured using a gamma counter. Non-specific binding is defined as the bound radioactivity after the presence of 1 μM BIBN4096BS during incubation.
The concentration binding curves are analysed using computer-aided non-linear curve fitting.

T1 sequence (Q16602 23-461): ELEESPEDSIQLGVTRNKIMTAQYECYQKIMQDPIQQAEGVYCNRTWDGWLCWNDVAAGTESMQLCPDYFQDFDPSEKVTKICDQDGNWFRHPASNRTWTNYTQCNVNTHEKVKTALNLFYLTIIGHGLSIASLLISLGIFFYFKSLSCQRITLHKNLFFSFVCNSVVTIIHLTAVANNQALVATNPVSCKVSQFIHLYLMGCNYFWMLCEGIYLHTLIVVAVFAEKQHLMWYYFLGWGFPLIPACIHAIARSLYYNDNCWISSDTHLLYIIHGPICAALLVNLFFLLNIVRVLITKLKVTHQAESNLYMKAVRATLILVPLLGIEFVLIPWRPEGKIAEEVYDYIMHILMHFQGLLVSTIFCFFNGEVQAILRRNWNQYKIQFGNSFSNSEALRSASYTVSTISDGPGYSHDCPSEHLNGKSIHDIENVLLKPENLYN
T1 sequence (O60894 27-148): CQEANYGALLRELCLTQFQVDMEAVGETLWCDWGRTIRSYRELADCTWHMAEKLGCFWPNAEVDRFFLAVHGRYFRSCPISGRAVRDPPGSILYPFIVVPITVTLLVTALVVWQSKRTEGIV

| Ki [nM] | Compound |
| --- | --- |
| 2 | COc1ccc2c(c1)CCN(C1CCN(c3cc(Oc4cc(C)c5[nH]c(=O)oc5c4)ncn3)CC1)C(=O)N2 [(1)] |
| 20 | Cc1cc(Oc2cc(N3CCC(n4c(=O)[nH]c5ncccc54)CC3)ncn2)cc2oc(=O)n(C)c12 [(2)] |
| 23 | COc1ccc2c(c1)CCN(C1CCN(c3cc(Oc4cc(C)c5c(c4)oc(=O)n5C)ncn3)CC1)C(=O)N2 [(3)] |
| 175 | Cc1ccc(Oc2cc(N3CCC(n4c(=O)[nH]c5ncccc54)CC3)ncn2)cc1C [(4)] |
| 3 | Cc1cc(Oc2cc(N3CCC(n4c(=O)[nH]c5ncccc54)CC3)ncn2)cc2oc(=O)[nH]c12 [(5)] |
| 4 | Cc1cc(Nc2cc(N3CCC(n4c(=O)[nH]c5ncccc54)CC3)ncn2)cc2oc(=O)[nH]c12 [(6)] |
| 5 | COc1ccc2c(c1)CCN(C1CCN(c3cc(Nc4cc(C)c5[nH]c(=O)oc5c4)ncn3)CC1)C(=O)N2 [(7)] |
| 12 | COc1ccc2c(c1)CCN(C1CCN(c3cc(Nc4cc(C)c5[nH]c(C)nc5c4)ncn3)CC1)C(=O)N2 [(8)] |
| 37 | Cc1nc2cc(Nc3cc(N4CCC(n5c(=O)[nH]c6c7ccccc7ncc65)CC4)ncn3)cc(C)c2[nH]1 [(9)] |
| 49 | COc1ccc2c(c1)CCN(C1CCN(c3cc(Nc4cc(C)c5c(c4)oc(=O)n5C)ncn3)CC1)C(=O)N2 [(10)] |
| 54 | COc1ccc2c(c1)CCN(C1CCN(c3cc(Nc4cc(C)c5[nH]ncc5c4)ncn3)CC1)C(=O)N2 [(11)] |
| 61 | COc1ccc2c(c1)CCN(C1CCN(c3cc(Nc4cc(C)c5c(c4)nc(C)n5C)ncn3)CC1)C(=O)N2 [(12)] |
| 68 | Cc1nc2cc(Nc3cc(N4CCC(n5c(=O)[nH]c6ncccc65)CC4)ncn3)cc(C)c2[nH]1 [(13)] |
| 81 | Cc1cc(Nc2cc(N3CCC(n4c(=O)[nH]c5ncccc54)CC3)ncn2)cc2oc(=O)n(C)c12 [(14)] |
| 102 | COc1ccc2c(c1)CCN(C1CCN(c3cc(N(C(C)=O)c4cc(C)c5c(c4)oc(=O)n5C)ncn3)CC1)C(=O)N2 [(15)] |
| 187 | COc1ccc2c(c1)CCN(C1CCN(c3cc(Nc4cc(C)c5oc(C)nc5c4)ncn3)CC1)C(=O)N2 [(16)] |
| 198 | COc1ccc2c(c1)CCN(C1CCN(c3cc(Nc4cc(C)c(O)c(C)c4)ncn3)CC1)C(=O)N2 [(17)] |
| 227 | Cc1cc(Nc2cc(Nc3ccc4c(c3)CC3(C4)C(=O)Nc4ncccc43)ncn2)cc2oc(=O)[nH]c12 (stereo not drawn) [(18)] |
| 241 | Cc1nc2cc(Nc3cc(Nc4ccc5c(c4)CC4(C5)C(=O)Nc5ncccc54)ncn3)cc(C)c2[nH]1 (stereo not drawn) [(19)] |
| 481 | Cc1nc2cc(Nc3cc(N4CCC(n5c(=O)[nH]c6ncccc65)CC4)ncn3)cc(C)c2o1 [(20)] |
| 2 | COc1ccc2c(c1)CCN(C1CCN(c3cc(Sc4cc(C)c5[nH]c(=O)oc5c4)ncn3)CC1)C(=O)N2 [(21)] |
| 5 | COc1ccc2c(c1)CCN(C1CCN(c3cc(Oc4cc(C)c5[nH]c(=O)oc5c4)nc(C)n3)CC1)C(=O)N2 [(22)] |
| 1 | Cc1cc(Oc2cc(N3CCC4(CC3)OC(=O)Nc3ncccc34)ncn2)cc2oc(=O)[nH]c12 [(23)] |
| 3 | Cc1nc(Nc2cc(C)c3[nH]c(=O)oc3c2)cc(N2CCC(n3c(=O)[nH]c4ncccc43)CC2)n1 [(24)] |
| 18 | COc1ccc2c(c1)CCN(C1CCN(c3cc([S+]([O-])c4cc(C)c5[nH]c(=O)oc5c4)ncn3)CC1)C(=O)N2 (stereo not drawn) [(25)] |
| 45 | COc1ccc2c(c1)CCN(C1CCN(c3cc(S(=O)(=O)c4cc(C)c5[nH]c(=O)oc5c4)ncn3)CC1)C(=O)N2 [(26)] |
| 207 | COc1ccc2c(c1)CCN(C1CCN(c3cc(Oc4cnc5ccccc5n4)ncn3)CC1)C(=O)N2 [(27)] |
| 4 | COc1ccc2c(c1)CCN(C1CCN(c3cc(Oc4cc(C)c5nc(CC#N)[nH]c5c4)ncn3)CC1)C(=O)N2 [(28)] |
| 3 | COc1ccc2c(c1)CCN(C1CCN(c3cc(Oc4cc(C)c5nc(C)[nH]c5c4)ncn3)CC1)C(=O)N2 [(29)] |
| 129 | COc1ccc2c(c1)CCN(C1CCN(c3cc(Oc4cc(C)nc5ccccc45)ncn3)CC1)C(=O)N2 [(31)] |

Source: patent US8952014B2, “Pyrimidine derivatives which are CGRP—antagonists” (Boehringer Ingelheim International GmbH, priority 2008, dated 2015)
